{
  "source": "paper PMC8857470",
  "about": "“Molecular insights into the maturation of phosphodiesterase 6 by the specialized chaperone complex of HSP90 with AIPL1” (The Journal of Biological Chemistry, 2022)",
  "molecular_target": "T1, AIPL1 (full-length mouse AIPL1) (Mus musculus, UniProt Q924K1)",
  "T1 construct": "full-length (aa 1-328), His6-tagged from pET15b, expressed in E. coli BL21(DE3), purified by Ni-NTA, Mono Q and SEC; prenyl site in the FKBP domain",
  "T1 sequence (Q924K1 1-328)": "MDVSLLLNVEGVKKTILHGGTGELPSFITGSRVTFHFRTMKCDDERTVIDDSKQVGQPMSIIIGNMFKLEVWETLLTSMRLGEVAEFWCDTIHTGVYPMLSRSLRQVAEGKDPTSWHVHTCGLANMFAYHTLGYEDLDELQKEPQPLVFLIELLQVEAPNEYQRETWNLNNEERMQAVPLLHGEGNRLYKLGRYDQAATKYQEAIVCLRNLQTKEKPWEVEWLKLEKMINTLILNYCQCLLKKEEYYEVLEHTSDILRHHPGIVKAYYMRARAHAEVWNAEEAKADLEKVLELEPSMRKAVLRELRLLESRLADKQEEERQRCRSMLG",
  "assay": "fluorescence titration, ex […] nm, em […] nm, fit with ligand depletion",
  "assay_type": "binding",
  "data": [
    {"compound": "CC(C)=CCC/C(C)=C/CC/C(C)=C/CSC[C@H](NC(=O)CCCCCNC(=O)Cc1c(C)c2ccc(N)cc2oc1=O)C(=O)O", "note": "[farnesyl-Cys-AMCA]", "values": [
      {"measurement": "Kd", "result": "700 ± 100", "unit": "nM"}
    ]}
  ]
}
